Reference: ChEMBL document CHEMBL1121785, “Comparison of solution conformational preferences for the hallucinogens bufotenin and psilocin using 360-MHz proton NMR spectroscopy” (J Med Chem, 1981)

Experiments:
Assay type in all cases: physicochemical
[1] = Partition coefficient of octanol and water was determined
[2] = Partition coefficient (logP); conditions: octanol/water
[3] = True partition coefficient corrected for ionization was determined; conditions: octanol/water

Row | Structure (SMILES) | Poct [1] | logP [2] | pKa [3]
1 | CN(C)CCc1c[nH]c2cccc(O)c12 [PSILOCIN] | 0.68 | 1.45 | 3.3
2 | CN(C)CCc1c[nH]c2ccc(O)cc12 [BUFOTENINE] | 0.16 | 1.19 | 
